Molecules are shown by their SMILES.

The target in the first assay is T1, K103NNY181C mutant reverse transcriptase (Human immunodeficiency virus type 1 group M subtype B, UniProt P04585, K690N/Y768C).
T1 construct: mutations that occur in the reverse transcriptase segment of the pol gene
Nature of the assay: Reverse transcriptase enzymatic assay (PicoGreen), K103N/Y181C mutant RT. The format is biochemical, HIV-1. Particulars: IC50 mut (nM), mutant (K103N/Y181C) reverse transcriptase, enzymatic assay of Example 24. How it is done:
The enzymatic assay employed is described as follows: The reverse transcriptase (RT) enzyme assay has been adapted to a 96-well microtiter plate format and uses PicoGreen™ as a fluorescent intercalator. More explicitly, the HIV-1 RT enzyme was thawed and appropriately diluted into Tris/HCl 50 mM pH 7.8 containing NaCl 60 mM, MgCl2.6H2O 2 mM, DTT 6 mM, GSH 2 mM and 0.02% w/v Chaps to give ≈10 nM enzyme. To 10 μL of this enzyme solution was added 10 μL of inhibitor solution (40 μM to 2.032 nM inhibitor in the same assay buffer as above containing 4% v/v DMSO). The plate was pre-incubated for 15 minutes at room temperature before proceeding to the next step. In this pre-incubation step, the highest and lowest inhibitor concentrations were 20 μM and 1.016 nM respectively and the concentration of DMSO was 2% v/v. Then the enzymatic reaction was initiated by addition of 20 μL of substrate solution. The final reaction mixture contained Tris/HCl 50 mM pH 7.8, NaCl 60 mM, MgCl2.6H2O 2 mM, DTT 6 mM, GSH 2 mM, CHAPS 0.02% w/v, DMSO 1% v/v, poly rC 45 nM, dG15 4.5 nM, dGTP 3.6 μM, and 2.5 nM enzyme. In this incubation step, the highest and lowest inhibitor concentrations were 10 μM and 0.508 nM respectively. After addition of the substrate cocktail, the plate was covered with a plastic seal and incubated for 50 minutes at 37° C. in a dry incubator. The reaction was then quenched by addition of 5 μL of EDTA 0.5 M. The plate was shaken for 30 seconds at medium speed and incubated for 5 minutes at room temperature. Then 160 μL of PicoGreen™ 1:400 dilution from commercial stock (diluted in Tris 20 mM pH 7.5 with EDTA 1 mM) was added and the plate was shaken for 30 seconds and incubated for 10 minutes at room temperature. The plate was then analyzed using a POLARstar Galaxy fluorometer (BMG Labtechnologies) with λex and λem of 485 nm and 520 nm respectively. Each well was read for 1.25 second. Each row contained at its extremities a blank and a control well.
The IC50 is the midpoint of a concentration-inhibition curve. Lower therefore signals greater potency in that assay. `CN(C)c1ccc(CC(=O)Nc2ccc(NC(=O)CSc3nnnn3-c3ccc(C(C)(C)C)cc3Cl)c(Cl)c2)cc1` [Compound 7037] returned an IC50 of 236 nM.
The same measure, in the same setting: in the case of `CC(C)(C)c1ccc(-n2nnnc2SCC(=O)Nc2ccc(NC(=O)Cc3cc[n+]([O-])cc3)cc2Cl)c(Cl)c1` [Compound 7046] it was 140 nM; in that of `CC(C)(C)c1ccc(-n2nnnc2SCC(=O)Nc2ccc(NC(=O)Cc3ccccn3)cc2Cl)c(Cl)c1` [Compound 7032], 30 nM.
Same read-out and setting: in the case of `COc1cccc(CC(=O)Nc2ccc(NC(=O)CSc3nnnn3-c3ccc(C(C)(C)C)cc3Cl)c(Cl)c2)c1` [Compound 7016] it was 145 nM; in that of `CC(C)(C)c1ccc(-n2nnnc2SCC(=O)Nc2ccc(NC(=O)Cc3ccccc3[N+](=O)[O-])cc2Cl)c(Cl)c1` [Compound 7019], 25 nM.

Staying with this assay, now noted: IC50 mut, K103N/Y181C mutant reverse transcriptase, enzymatic assay of Example 24.
`CN(C)CC(=O)NC(C)(C)C#Cc1ccc(NC(=O)CSc2nnnn2-c2cc(C(F)(F)F)ccc2Cl)c(Cl)c1` [Compound 4138] had an IC50 of 43 nM.
On the same count and under the same terms, the result for `CC(C)c1ccc(-n2nnnc2SCC(=O)Nc2ccc(C#CC(C)(C)C(=O)O)cc2Cl)c(Br)c1` [Compound 4099] reads 42.5 nM; that for `CC(C)(O)C#Cc1ccc(NC(=O)CSc2nnnn2-c2cc(C#N)ccc2Cl)c(Cl)c1` [Compound 4021], 361 nM; that for `CC(C)c1ccc(-n2nnnc2SCC(=O)Nc2ccc(C#CC(C)(C)C(=O)O)cc2Cl)c(Cl)c1` [Compound 4121], 33.5 nM.
Still for that read-out and setting: in the case of `CN(C)CCCNC(=O)C(C)(C)C#Cc1ccc(NC(=O)CSc2nnnn2-c2ccc(C3CC3)cc2Cl)c(Cl)c1` [Compound 4145] it was 48 nM; in that of `CC(=O)NNC(=O)COC(C)(C)C#Cc1ccc(NC(=O)CSc2nnnn2-c2ccc(C(C)(C)C)cc2Cl)c(Cl)c1` [Compound 4043], 35 nM; in that of `CC(C)(C#Cc1ccc(NC(=O)CSc2nnnn2-c2cc(C(F)(F)F)cc(C3CC3)c2Cl)c(Cl)c1)OCCN1CCC(F)(F)C1` [Compound 4242], 854 nM.
Compound `CN(C)S(=O)(=O)NC(=O)C(C)(C)C#Cc1ccc(NC(=O)CSc2nnnn2-c2ccc(C3CC3)cc2Cl)c(Cl)c1` [Compound 4185] displayed an IC50 of 55.5 nM.
With `CC(C)(C)c1ccc(-n2nnnc2SCC(=O)Nc2ccc(C#CCOC(N)=O)cc2Cl)c(Cl)c1` [Compound 4034], half-maximal inhibition (IC50) was put at 8.9 nM. Compared with the last compound, the IC50 is about 6.2-fold lower.
Still for that read-out and setting: in the case of `CC(C)(C#Cc1ccc(NC(=O)CSc2nnnn2-c2ccc(C3CC3)cc2Cl)c(Cl)c1)NC(=O)OC(C)(C)C` [Compound 4069] it was 112 nM; in that of `Cc1cc(C(F)(F)F)cc(-n2nnnc2SCC(=O)Nc2ccc(C#CC(C)(C)O)cc2Cl)c1Cl` [Compound 4030], 21 nM; in that of `CC(C)(N)C#Cc1ccc(NC(=O)CSc2nnnn2-c2ccc(C3CC3)cc2Cl)c(Cl)c1F` [Compound 4151], 22.5 nM.
The same measure, in the same setting: the result for `CN(C)CC(=O)NC(C)(C)C#Cc1ccc(NC(=O)CSc2nnnn2-c2ccc(C3CC3)cc2Cl)c(Cl)c1` [Compound 4087] reads 21.5 nM; that for `CC(C)(C#Cc1ccc(NC(=O)CSc2nnnn2-c2ccc(C(C)(C)C)cc2Cl)c(Cl)c1)OCC(=O)Nc1ccccc1` [Compound 4044], 296 nM; that for `O=C(CSc1nnnn1-c1ccc(C2CC2)cc1Cl)Nc1ccc(C#CC(O)(C(F)(F)F)C(F)(F)F)cc1Cl` [Compound 4249], 203 nM.
On the same count and under the same terms, the result for `Cc1cc(Cl)c(-n2nnnc2SCC(=O)Nc2ccc(C#CC(C)(C)O)cc2Cl)cc1C(F)(F)F` [Compound 4060] reads 42 nM; that for `Cc1cc(Cl)c(-n2nnnc2SCC(=O)Nc2ccc(C#CC(C)(C)C(=O)O)cc2Cl)cc1C(F)(F)F` [Compound 4063], 51.5 nM.
As for `CC(C)(C#Cc1ccc(NC(=O)CSc2nnnn2-c2ccc(C3CC3)cc2Cl)c(Cl)c1)NC(=O)CN1CCC(O)CC1` [Compound 4125], the midpoint of inhibition, the IC50, lay at 26 nM.
`CC(CC(=O)O)NC(=O)COC(C)(C)C#Cc1ccc(NC(=O)CSc2nnnn2-c2ccc(C(C)(C)C)cc2Cl)c(Cl)c1` (stereo not drawn) [Compound 4046] gave an IC50 of 23 nM.
The same measure, in the same setting: the result for `CN(C)CC(=O)NC(C)(C)C#Cc1ccc(NC(=O)CSc2nnnn2-c2cc(C(F)(F)F)ccc2Cl)c(Cl)c1F` [Compound 4171] reads 31.5 nM.
Same read-out and setting: the result for `CC(C)(C#Cc1ccc(NC(=O)CSc2nnnn2-c2ccc(C3CC3)cc2Cl)c(Cl)c1)NC(=O)c1ccccc1` [Compound 4106] reads 19 nM; that for `Cc1ccc(-n2nnnc2SCC(=O)Nc2ccc(C#CC(C)(C)O)cc2Cl)c(Cl)c1C(F)(F)F` [Compound 4059], 656 nM; that for `CC(C)(C#Cc1ccc(NC(=O)CSc2nnnn2-c2ccc(C3CC3)cc2Cl)c(Cl)c1)OCCN1CCC(O)CC1` [Compound 4104], 64.5 nM.
In turn, `CC(C)(C#Cc1ccc(NC(=O)CSc2nnnn2-c2cc(C(F)(F)F)ccc2Cl)c(Cl)c1)OCCN1CCCC1` [Compound 4142] yielded an IC50 of 50.5 nM.
Same read-out and setting: in the case of `CC(C)(C#Cc1ccc(NC(=O)CSc2nnnn2-c2cc(C(F)(F)F)cc(C3CC3)c2Cl)c(Cl)c1F)NC(=O)c1ccc[n+]([O-])c1` [Compound 4230] it was 30.5 nM.

Still in this assay, the particulars now being: IC50 mut, mutant reverse transcriptase, enzymatic assay of Example 24.
The compound `Cc1ccc(-n2nccc2SCC(=O)Nc2ccc(-c3ccc(CC(=O)O)cc3)cc2Cl)c(Cl)c1` [Compound 1004] came in with an IC50 of 420 nM.
The same measure, in the same setting: in the case of `CC(C)(C)c1ccc(-n2nnnc2SCC(=O)Nc2ccc(C(=O)NCCc3ccc(O)c(O)c3)cc2Cl)c(Cl)c1` [Compound 6020] it was 51 nM; in that of `CN1CCN(NS(=O)(=O)c2ccc(NC(=O)CSc3nnnn3-c3ccc(C4CC4)cc3Cl)c(Cl)c2)CC1` [Compound 3037], 112 nM.
As to `CC(CC(=O)O)NC(=O)COc1ccc(NC(=O)CSc2nnnn2-c2ccc(C(C)(C)C)cc2Cl)c(Cl)c1` (stereo not drawn) [Compound 5014], the midpoint of inhibition, the IC50, lay at 146 nM.
Still for that read-out and setting: in the case of `CC(C)(C)c1ccc(-n2nnnc2SCC(=O)Nc2ccc(C(=O)N3CCOCC3)cc2Cl)c(Cl)c1` [Compound 6005] it was 564 nM.
Same read-out and setting: the result for `CC(C)(C)c1ccc(-n2nnnc2SCC(=O)Nc2ccc(C(=O)Nc3cccc(C(=O)O)c3)cc2Cl)c(Cl)c1` [Compound 6021] reads 58 nM.
Still for that read-out and setting: in the case of `CC(C)(C)c1ccc(-n2nnnc2SCC(=O)Nc2ccc(OCC(=O)NCC(=O)O)cc2Cl)c(Cl)c1` [Compound 5020] it was 163 nM; in that of `Cc1ccc(-n2nnnc2SCC(=O)Nc2ccc(/C=C/C(=O)O)cc2Cl)c(Cl)c1` [Compound 3006], 265 nM; in that of `CC(C)(C)c1ccc(-n2nnnc2SCC(=O)Nc2ccc(OCC(=O)Nc3ccccc3C(=O)O)cc2Cl)c(Cl)c1` [Compound 5010], 402 nM.
Compound `O=C(O)Cc1ccc(-c2ccc(NC(=O)CSc3nnnn3-c3ccc(C4CC4)cc3Cl)c(Br)c2)cc1` [Compound 2048] displayed an IC50 of 13 nM.
Same read-out and setting: in the case of `CC(C)(C)c1ccc(-n2nnnc2SCC(=O)Nc2ccc(C(=O)Nc3ccc(/C=C/C(=O)O)cc3)cc2Cl)c(Cl)c1` [Compound 6022] it was 14 nM.
The same measure, in the same setting: in the case of `CN(C)c1ccc(NC(=O)c2ccc(NC(=O)CSc3nnnn3-c3ccc(C(C)(C)C)cc3Cl)c(Cl)c2)cc1` [Compound 6012] it was 47 nM; in that of `CC(C)(C)c1ccc(-n2nnnc2SCC(=O)Nc2ccc(C(=O)Nc3ccncc3)cc2Cl)c(Cl)c1` [Compound 6029], 22 nM; in that of `O=C(CSc1nnnn1-c1ccc(C2CC2)cc1Cl)Nc1ccc(C(=O)NCc2ccc[n+]([O-])c2)cc1Cl` [Compound 6039], 104 nM.
Same read-out and setting: the result for `Cc1ccc(-n2nnnc2SCC(=O)Nc2ccc(-c3ccc(CC(N)=O)cc3)cc2[N+](=O)[O-])c(Cl)c1` [Compound 2013] reads 20 nM; that for `CC(C)(C)c1ccc(-n2nnnc2SCC(=O)Nc2ccc(OCC(=O)NCCO)cc2Cl)c(Cl)c1` [Compound 5015], 158 nM; that for `O=C(COc1ccc(NC(=O)CSc2nnnn2-c2ccc(C3CC3)cc2Cl)c(Cl)c1)NCCc1cc[n+]([O-])cc1` [Compound 5040], 563 nM.
The compound `CC(C)(C)c1ccc(-n2nnnc2SCC(=O)Nc2ccc(OCC(=O)NCCC(=O)O)cc2Cl)c(Cl)c1` [Compound 5025] displayed an IC50 of 124 nM.
The same measure, in the same setting: the result for `Cc1cc(C)c(-n2nnnc2SCC(=O)Nc2ccc(-c3ccc(CC(=O)O)cc3)cc2Cl)c(Cl)c1` [Compound 2021] reads 20 nM; that for `CC(C)(C)c1ccc(-n2nnnc2SCC(=O)Nc2ccc(-c3ccc(OCCN4CCCC4)cc3)cc2Cl)c(Cl)c1` [Compound 2029], 19 nM.
Still for that read-out and setting: in the case of `CC(C)(C)c1cc(Cl)c(-n2nnnc2SCC(=O)Nc2ccc(-c3ccc(CC(=O)O)cc3)cc2Cl)c(Cl)c1` [Compound 2020] it was 18 nM.
